Key:
[1] = system: K-562; assay: Inhibition of cells growth by colorimetric assay (SRB), K-562; assay type: cell-based; conditions: SRB, 48 hours exposure; for GI50 / LC50 (50% cell killing): Homo sapiens, K562, 48 h; for GI50 / K-562 TGI: K-562; for GI50: read-out: K-562 GI50; for LC50 (50% cell killing): read-out: K-562 LC50, K-562
Summary of the method: (§1)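 Human cancer and endothelial lines are seeded at 5×10^3 cells per well and, after 18 h, treated for 48 h with compound dissolved in DMSO/EtOH/PBS (0.5:0.5:99) at 10 to 10^−8 μg/ml. Cell mass is quantified by SRB staining (OD 490 nm), and growth inhibition, total growth inhibition and cell kill are calculated from triplicate wells.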

[2] = system: A-549; assay: Inhibition of cells growth by colorimetric assay (SRB), A-549; assay type: cell-based; conditions: SRB, 48 hours exposure; for GI50 / LC50 (concentration for 50% cell killing): Homo sapiens, A549, 48 h; for A-549 TGI / GI50: A-549; for GI50: read-out: A-549 GI50; for LC50 (concentration for 50% cell killing): read-out: A-549 LC50, A-549
Summary of the method: as §1

[3] = system: SK-MEL-28; assay: Inhibition of cells growth by colorimetric assay (SRB), SK-MEL-28; assay type: cell-based; conditions: SRB, 48 hours exposure; for GI50 / CC50: Homo sapiens, SK-MEL-28, 48 h; for GI50 / MEL-28 TGI: MEL-28; for GI50: read-out: MEL-28 GI50; for CC50: read-out: MEL-28 LC50, MEL-28
Summary of the method: as §1

[4] = system: HT-29; assay: Inhibition of cells growth by colorimetric assay (SRB), HT-29; assay type: cell-based; conditions: SRB, 48 hours exposure; for GI50 / LC50 (concentration for 50% cell killing): Homo sapiens, HT-29, 48 h; for HT-29 TGI / GI50: HT-29; for GI50: read-out: HT-29 GI50; for LC50 (concentration for 50% cell killing): read-out: HT-29 LC50, HT-29
Summary of the method: as §1

[5] = system: LoVo; assay: Inhibition of cells growth by colorimetric assay (SRB), LoVo; assay type: cell-based; conditions: SRB, 48 hours exposure; for GI50 / LC50 (concentration for 50% cell killing): Homo sapiens, LoVo, 48 h; for GI50 / LOVO TGI: LOVO; for GI50: read-out: LOVO GI50; for LC50 (concentration for 50% cell killing): read-out: LOVO LC50, LOVO
Summary of the method: as §1

[6] = system: LoVo-Dox; assay: Inhibition of cells growth by colorimetric assay (SRB), LoVo-Dox; assay type: cell-based; conditions: SRB, 48 hours exposure; for GI50 / CC50: Homo sapiens, 48 h; for GI50 / LOVO-DOX TGI: LOVO-DOX; for GI50: read-out: LOVO-DOX GI50; for CC50: read-out: LOVO-DOX LC50, LOVO-DOX
Summary of the method: as §1

[7] = system: DU-145; assay: Inhibition of cells growth by colorimetric assay (SRB), DU-145; assay type: cell-based; conditions: SRB, 48 hours exposure; for GI50 / CC50: Homo sapiens, DU-145, 48 h; for DU-145 TGI / GI50: DU-145; for GI50: read-out: DU-145 GI50; for CC50: read-out: DU-145 LC50, DU-145
Summary of the method: as §1

[8] = system: LNCaP; assay: Inhibition of cells growth by colorimetric assay (SRB), LNCaP; assay type: cell-based; conditions: SRB, 48 hours exposure; for GI50 / CC50: Homo sapiens, LNCaP, 48 h; for GI50: read-out: LNCAP GI50, LNCAP; for CC50: read-out: LNCAP LC50, LNCAP
Summary of the method: as §1

[9] = system: SK-BR-3; assay: Inhibition of cells growth by colorimetric assay (SRB), SK-BR-3; assay type: cell-based; conditions: SRB, 48 hours exposure; for GI50 / CC50: Homo sapiens, SK-BR-3, 48 h; for GI50 / SK-BR3 TGI: SK-BR3; for GI50: read-out: SK-BR3 GI50; for CC50: read-out: SK-BR3 LC50, SK-BR3
Summary of the method: as §1

[10] = system: IGROV-1; assay: Inhibition of cells growth by colorimetric assay (SRB), IGROV-1; assay type: cell-based; conditions: SRB, 48 hours exposure; for GI50 / CC50: Homo sapiens, IGROV-1, 48 h; for GI50 / IGROV TGI: IGROV; for GI50: read-out: IGROV GI50; for CC50: read-out: IGROV LC50, IGROV
Summary of the method: as §1

[11] = system: IGROV-ET; assay: Inhibition of cells growth by colorimetric assay (SRB), IGROV-ET; assay type: cell-based; conditions: SRB, 48 hours exposure; for GI50 / CC50: Homo sapiens, 48 h; for GI50 / IGROV-ET TGI: IGROV-ET; for GI50: read-out: IGROV-ET GI50; for CC50: read-out: IGROV-ET LC50, IGROV-ET
Summary of the method: as §1

[12] = system: SK-OV-3; assay: Inhibition of cells growth by colorimetric assay (SRB), SK-OV-3; assay type: cell-based; conditions: SRB, 48 hours exposure; for GI50 / LC50: Homo sapiens, SK-OV-3, 48 h; for GI50 / SK-OV3 TGI: SK-OV3; for GI50: read-out: SK-OV3 GI50; for LC50: read-out: SK-OV3 LC50, SK-OV3
Summary of the method: as §1

[13] = system: PANC-1; assay: Inhibition of cells growth by colorimetric assay (SRB), PANC-1; assay type: cell-based; conditions: SRB, 48 hours exposure; for GI50 / LC50 (concentration for 50% net cell kill): Homo sapiens, PANC-1, 48 h; for GI50 / PANC-1 TGI: PANC-1; for GI50: read-out: PANC-1 GI50; for LC50 (concentration for 50% net cell kill): read-out: PANC-1 LC50, PANC-1
Summary of the method: as §1

[14] = system: HMEC1; assay: Inhibition of cells growth by colorimetric assay (SRB), HMEC1; assay type: cell-based; conditions: SRB, 48 hours exposure; for GI50 / LC50: Homo sapiens, HMEC-1, 48 h; for HMEC-1 TGI / GI50: HMEC-1; for GI50: read-out: HMEC-1 GI50; for LC50: read-out: HMEC-1 LC50, HMEC-1
Summary of the method: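 Sulforhodamine B protein-stain readout (490 nm) after 48 h drug exposure, with GI, TGI and LC parameters calculated from triplicate means. Cells seeded at 5×10^3 per well, allowed 18 h drug-free attachment; dose range 10 to 10^−8 μg/ml, vehicle DMSO/EtOH/PBS (0.5:0.5:99).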

[15] = system: Liver
Text: (§2) Toxicity was asssessed by the methods reported in Toxicology in Vitro, 15 (2001) 571-577, J. Luber Narod et al.: “Evaluation of the use of in vitro methodolodies as tools for screening new compounds for potential in vivo toxicity”.

[16] = system: Heart
Text: as §2

[17] = system: Myelo
Text: as §2

[18] = system: Skeletal
Text: as §2

[19] = system: Kidney
Text: as §2

COc1cc2c(cc1O)CCN(C)[C@]21CS[C@@H]2c3c(OC(C)=O)c(C)c4c(c3[C@H](COC1=O)N1C2[C@H]2c3c(cc(C)c(OC)c3O)C[C@@H]([C@@H]1O)N2C)OCO4 (stereo partly shown) [Compound 93]
GI50 [1]: 0.611 nM | LC50 (50% cell killing) [1]: 9540 nM | K-562 TGI [1]: 1.29E-08 | A-549 TGI [2]: 2.90E-09 | GI50 [2]: 0.463 nM | LC50 (concentration for 50% cell killing) [2]: 12.9 nM | GI50 [3]: 0.281 nM | CC50 [3]: 3.58 nM | MEL-28 TGI [3]: 6.24E-10 | HT-29 TGI [4]: 1.29E-08 | GI50 [4]: 0.635 nM | LC50 (concentration for 50% cell killing) [4]: 12900 nM | GI50 [5]: 0.768 nM | LC50 (concentration for 50% cell killing) [5]: 12900 nM | LOVO TGI [5]: 4.58E-09 | GI50 [6]: 7.71 nM | CC50 [6]: 12900 nM | LOVO-DOX TGI [6]: 9.87E-08 | DU-145 TGI [7]: 6.30E-10 | GI50 [7]: 0.331 nM | CC50 [7]: 1.29 nM | GI50 [8]: 2.85 nM | CC50 [8]: 129 nM | LNCAP TGI [8]: 6.77E-09 | GI50 [9]: 0.445 nM | CC50 [9]: 9.5 nM | SK-BR3 TGI [9]: 1.96E-09 | GI50 [10]: 0.214 nM | CC50 [10]: 129 nM | IGROV TGI [10]: 6.46E-10 | GI50 [11]: 21.5 nM | CC50 [11]: 12900 nM | IGROV-ET TGI [11]: 1.31E-07 | GI50 [12]: 0.409 nM | LC50 [12]: 12900 nM | SK-OV3 TGI [12]: 1.29E-09 | GI50 [13]: 0.314 nM | LC50 (concentration for 50% net cell kill) [13]: 12900 nM | PANC-1 TGI [13]: 1.29E-09 | HMEC-1 TGI [14]: 1.55E-10 | GI50 [14]: 0.037 nM | LC50 [14]: 0.487 nM | Toxicity Data Liver [15]: 1.13E-08 | Toxicity Data Heart [16]: 4.46E-08 | Toxicity Data Myelo [17]: 3.35E-09 | Toxicity Data Skeletal [18]: 5.52E-10 | Toxicity Data Kidney [19]: 6.32E-08

COC1=C(C)C(=O)C2=C(C1=O)[C@@H]1C3[C@@H]4SC[C@]5(NCCc6cc(O)c(OC)cc65)C(=O)OC[C@@H](c5c6c(c(C)c(OC(C)=O)c54)OCO6)N3[C@@H](O)[C@H](C2)N1C (stereo partly shown) [Compound 101]
GI50 [1]: 0.25 nM | LC50 (50% cell killing) [1]: 19.2 nM | K-562 TGI [1]: 6.20E-10 | A-549 TGI [2]: 6.52E-09 | GI50 [2]: 3.69 nM | LC50 (concentration for 50% cell killing) [2]: 11.5 nM | GI50 [3]: 3.35 nM | CC50 [3]: 26 nM | MEL-28 TGI [3]: 7.02E-09 | HT-29 TGI [4]: 1.03E-08 | GI50 [4]: 3.57 nM | LC50 (concentration for 50% cell killing) [4]: 12900 nM | GI50 [5]: 13.4 nM | LC50 (concentration for 50% cell killing) [5]: 219 nM | LOVO TGI [5]: 4.68E-08 | GI50 [6]: 251 nM | CC50 [6]: 12900 nM | LOVO-DOX TGI [6]: 9.29E-07 | DU-145 TGI [7]: 7.46E-09 | GI50 [7]: 3.74 nM | CC50 [7]: 17.9 nM | GI50 [8]: 2.5 nM | CC50 [8]: 7.71 nM | LNCAP TGI [8]: 4.40E-09 | GI50 [9]: 2.63 nM | CC50 [9]: 46.8 nM | SK-BR3 TGI [9]: 6.44E-09 | GI50 [10]: 2.5 nM | CC50 [10]: 10.7 nM | IGROV TGI [10]: 5.17E-09 | GI50 [11]: 30.5 nM | CC50 [11]: 246 nM | IGROV-ET TGI [11]: 6.88E-08 | GI50 [12]: 4.49 nM | LC50 [12]: 12900 nM | SK-OV3 TGI [12]: 9.77E-09 | GI50 [13]: 5.66 nM | LC50 (concentration for 50% net cell kill) [13]: 1340 nM | PANC-1 TGI [13]: 2.27E-08 | HMEC-1 TGI [14]: 1.17E-08 | GI50 [14]: 3.05 nM | LC50 [14]: 12900 nM | Toxicity Data Liver [15]: 5.40E-08 | Toxicity Data Heart [16]: 7.67E-08 | Toxicity Data Myelo [17]: 1.96E-08 | Toxicity Data Skeletal [18]: 3.40E-09 | Toxicity Data Kidney [19]: 3.17E-08
